Structures can show the parent of a compound that is named as a salt.
The molecules below were run on Phosphorylated Ribosomal Protein S6 (RPS6) in THP-1 cells (assay: THP-1 RPS6 ELISA Assay). Conditions: Homo sapiens, 2 hours with compound, 10 nM MCP-1 for 15 minutes, read-out: THP p-RPS6 ELISA IC50.
Type: cell-based
Procedure: To measure the Phosphorylated Ribosomal Protein S6 (RPS6) in cell lysates, THP-1 cells (Human Acute Monocytic Leukemia) are purchased from ATCC (Manassas, Va.) and maintained in RPMI with 10% FBS (Gibco/Life Technologies, Carlsbad, Calif.). For the assay, THP-1 cells are serum starved overnight in RPMI, then plated in RPMI (2×10^5 cells/well in 90 μL) into 96-well flat-bottom tissue culture treated plates (Corning, Corning, N.Y.), in the presence or absence of a concentration range of test compounds. Covered plates are incubated for 2 hours at 37° C., 5% CO2 then treated with or without 10 nM MCP-1 (MYBioSource, San Diego, Calif.) for 15 minutes at 37° C., 5% CO2. Plates are centrifuged at 1600 RPM and supernatants are removed. Cells are lysed in Lysis Buffer (Cell Signaling, Danvers, Mass.) with Protease Inhibitor (Calbiochem/EMD, Germany), PMSF (Sigma, St. Louis, Mo.), HALTS (Thermo Fisher, Rockford, Ill.) for 30 min on wet ice. Cell lysates are frozen at −80° C. before testing. The lysates are tested in the Human/Mouse/Rat Phospho-RPS6 ELISA (R&D Systems, Inc. Minn, Minn.). The plate is measured using a microplate reader (SpectraMax M5—Molecular Devices, LLC Sunnyvale, Calif.) set to 450 nm with a wavelength correction of 540. IC50 determination is performed by fitting the curve of inhibitor percent inhibition versus the log of the inhibitor concentration using the GraphPad Prism 5.0 software.

SMILES | IC50
O=S(=O)(Nc1cc(-c2ccc3nc(-c4nc5ccccc5[nH]4)oc3c2)cnc1F)c1ccc(F)cc1 [Example 30, N-(5-(2-(1H-Benzo[d]imidazol-2-yl)benzo[d]oxazol-6-yl)-2-fluoropyridin-3-yl)-4-fluorobenzene-sulfonamide] | < 1 µM
CCS(=O)(=O)n1ncc2ccc(-c3ccc4nc(-c5nc6ccccc6[nH]5)oc4c3)cc21 [Example 52, 6-[1-(Ethylsulfonyl)-1H-indazol-6-yl]-2-(1H-benzimidazol-2-yl)-1,3-benzoxazole] | ≥ 5 µM
CCn1ncc2ncc(-c3ccc4nc(-c5nc6ccccc6[nH]5)oc4c3)cc21 [Example 57, 6-[2-(1H-Benzimidazol-2-yl)-1,3-benzoxazol-6-yl]-1-ethyl-1H-pyrazolo[4,3-b]pyridine tris(trifluoroacetate)] | ≥ 5 µM
c1ccc2[nH]c(-c3nc4ccc(-c5ccc6[nH]ncc6c5)cc4o3)nc2c1 [Example 49, 2-(1H-Benzimidazol-2-yl)-6-(1H-indazol-5-yl)-1,3-benzoxazole] | ≥ 5 µM
COc1cncc(-c2ccc3nc(-c4cnc(C5CC5)[nH]4)oc3c2)c1 [Example 42, 2-(2-Cyclopropyl-1H-imidazol-5-yl)-6-(5-methoxypyridin-3-yl)benzo[d]oxazole] | ≥ 5 µM
O=S(=O)(Nc1cncc(-c2ccc3nc(-c4ncc[nH]4)oc3c2)c1)c1ccc(F)cc1 [Example 39, N-(5-(2-(1H-Imidazol-2-yl)benzo[d]oxazol-6-yl)pyridin-3-yl)-4-fluorobenzenesulfonamide] | < 1 µM
CN(C)S(=O)(=O)Nc1cncc(-c2ccc3nc(-c4nc5ccccc5[nH]4)oc3c2)c1 [Example 21, N′-{5-[2-(1H-Benzimidazol-2-yl)-1,3-benzoxazol-6-yl]-pyridin-3-yl}-N,N-dimethylsulfamide] | < 1 µM
O=S(=O)(Nc1cncc(-c2ccc3nc(-c4nc5ccccc5[nH]4)oc3c2)c1)c1cccc(F)c1 [Example 19, N-(5-(2-(1H-Benzo[d]imidazol-2-yl)benzo[d]oxazol-6-yl)pyridin-3-yl)-3-fluorobenzene-sulfonamide] | < 5 µM
OC(c1cncc(-c2ccc3nc(-c4nc5ccccc5[nH]4)oc3c2)c1)C(F)(F)F (stereo not drawn) [Example 74, 1-(5-(2-(1H-Benzo[d]imidazol-2-yl)benzo[d]oxazol-6-yl)pyridin-3-yl)-2,2,2-trifluoroethanol bis(trifluoroacetate)] | ≥ 5 µM
CCCc1nc(-c2nc3ccc(-c4cncc(NS(=O)(=O)CC)c4)cc3o2)[nH]c1C [Example 64, N-(5-(2-(5-Methyl-4-propyl-1H-imidazol-2-yl)benzo[d]oxazol-6-yl)pyridin-3-yl)ethanesulfonamide bis(trifluoroacetate)] | ≥ 5 µM
Cc1n[nH]c2ccc(-c3ccc4nc(-c5nc6ccccc6[nH]5)oc4c3)cc12 [Example 50, 2-(1H-Benzimidazol-2-yl)-6-(3-methyl-1H-indazol-5-yl)-1,3-benzoxazole] | ≥ 5 µM
Nc1ncc(-c2ccc3nc(-c4nc5ccccc5[nH]4)oc3c2)cc1C(F)(F)F [Example 56, 5-[2-(1H-Benzimidazol-2-yl)-1,3-benzoxazol-6-yl]-3-(trifluoromethyl)pyridin-2-amine bis(trifluoroacetate)] | ≥ 5 µM
O=S(=O)(Nc1cc(-c2ccc3nc(-c4nc5ccccc5[nH]4)oc3c2)cnc1Cl)c1ccc(F)cc1 [Example 29, N-(5-(2-(1H-Benzo[d]imidazol-2-yl)benzo[d]oxazol-6-yl)-2-chloropyridin-3-yl)-4-fluorobenzene-sulfonamide] | < 1 µM
O=S(=O)(c1cncc(-c2ccc3nc(-c4nc5ccccc5[nH]4)oc3c2)c1)N1CCC(O)C1 (stereo not drawn) [Example 58, 1-({5-[2-(1H-Benzimidazol-2-yl)-1,3-benzoxazol-6-yl]pyridin-3-yl}sulfonyl)pyrrolidin-3-ol bis(trifluoroacetate)] | ≥ 5 µM
OC(c1cncc(-c2ccc3nc(-c4ncc[nH]4)oc3c2)c1)C(F)(F)F (stereo not drawn) [Example 61, 1-(5-(2-(1H-Imidazol-2-yl)benzo[d]oxazol-6-yl)pyridin-3-yl)-2,2,2-trifluoroethanol bis(trifluoroacetate)] | < 1 µM
CCS(=O)(=O)Nc1cc(-c2ccc3nc(-c4nc5ccccc5[nH]4)oc3c2)cnc1C [Example 25, N-(5-(2-(1H-Benzo[d]imidazol-2-yl)benzo[d]oxazol-6-yl)-2-methylpyridin-3-yl)ethanesulfonamide] | < 5 µM
COc1cncc(-c2ccc3nc(-c4nc5ccccc5[nH]4)oc3c2)c1 [Example 4, 2-(1H-Benzo[d]imidazol-2-yl)-6-(5-methoxypyridin-3-yl)benzo[d]oxazole trifluoroacetate] | < 5 µM
CN(C)S(=O)(=O)c1cncc(-c2ccc3nc(-c4nc5ccccc5[nH]4)oc3c2)c1 [Example 37, 5-[2-(1H-benzimidazol-2-yl)-1,3-benzoxazol-6-yl]-N,N-dimethylpyridine-3-sulfonamide] | < 5 µM
O=S(=O)(Nc1cncc(-c2ccc3nc(-c4nc5ccccc5[nH]4)oc3c2)c1)N1CCCCC1 [Example 20, N-(5-(2-(1H-Benzo[d]imidazol-2-yl)benzo[d]oxazol-6-yl)pyridin-3-yl)piperidine-1-sulfonamide] | < 5 µM

Results, then the molecule that gave them:

IC50 | SMILES
≥ 5 µM | CCn1ncc2ccc(-c3ccc4nc(-c5nc6ccccc6[nH]5)oc4c3)cc21 [Example 54, 2-(1H-Benzimidazol-2-yl)-6-(1-ethyl-1H-indazol-6-yl)-1,3-benzoxazole bis(trifluoroacetate)]
< 1 µM | CCS(=O)(=O)Nc1cc(-c2ccc3nc(-c4nc5ccccc5[nH]4)oc3c2)cnc1Cl [Example 26, N-(5-(2-(1H-Benzo[d]imidazol-2-yl)benzo[d]oxazol-6-yl)-2-chloropyridin-3-yl)ethanesulfonamide]
< 5 µM | CC(C)Oc1cncc(-c2ccc3nc(-c4nc5ccccc5[nH]4)oc3c2)c1 [Example 15, 2-(1H-Benzo[d]imidazol-2-yl)-6-(5-isopropoxypyridin-3-yl)benzo[d]oxazole]
≥ 5 µM | CCS(=O)(=O)Nc1cc(-c2ccc3nc(-c4nc5ccccc5[nH]4)oc3c2)ccc1F [Example 60, N-{5-[2-(1H-Benzimidazol-2-yl)-1,3-benzoxazol-6-yl]-2-fluorophenyl}ethanesulfonamide]
< 1 µM | O=S(=O)(CC(F)(F)F)Nc1cncc(-c2ccc3nc(-c4nc5ccccc5[nH]4)oc3c2)c1 [Example 77, N-(5-(2-(1H-Benzo[d]imidazol-2-yl)benzo[d]oxazol-6-yl)pyridin-3-yl)-2,2,2-trifluoroethanesulfonamide bis(trifluoroacetate)]
≥ 5 µM | COc1cc(-c2ccc3nc(-c4nc5ccccc5[nH]4)oc3c2)cnc1F [Example 69, 2-(1H-Benzo[d]imidazol-2-yl)-6-(6-fluoro-5-methoxypyridin-3-yl)benzo[d]oxazole bis(trifluoroacetate)]
< 1 µM | CCS(=O)(=O)Nc1cc(-c2ccc3nc(-c4nc(C)c(C)[nH]4)oc3c2)cnc1OC [Example 65, N-(5-(2-(4,5-Dimethyl-1H-imidazol-2-yl)benzo[d]oxazol-6-yl)-2-methoxypyridin-3-yl)ethanesulfonamide bis(trifluoroacetate)]
< 1 µM | CN1CCN(S(=O)(=O)Nc2cncc(-c3ccc4nc(-c5nc6ccccc6[nH]5)oc4c3)c2)CC1 [Example 31, N-(5-(2-(1H-Benzo[d]imidazol-2-yl)benzo[d]oxazol-6-yl)pyridin-3-yl)-4-methylpiperazine-1-sulfonamide]
≥ 5 µM | CP(C)(=O)c1cncc(-c2ccc3nc(-c4nc5ccccc5[nH]4)oc3c2)c1 [Example 72, 2-(1H-Benzo[d]imidazol-2-yl)-6-(5-(dimethylphosphoryl)pyridin-3-yl)benzo[d]oxazole bis(trifluoroacetate)]
< 1 µM | CCS(=O)(=O)Nc1cc(-c2ccc3nc(-c4nc5ccccc5[nH]4)oc3c2)cnc1F [Example 27, N-(5-(2-(1H-Benzo[d]imidazol-2-yl)benzo[d]oxazol-6-yl)-2-fluoropyridin-3-yl)ethanesulfonamide]
< 5 µM | CS(=O)(=O)c1cncc(-c2ccc3nc(-c4nc5ccccc5[nH]4)oc3c2)c1 [Example 36, 2-(1H-Benzo[d]imidazol-2-yl)-6-(5-(methylsulfonyl)pyridin-3-yl)benzo[d]oxazole]
< 1 µM | Cc1ncc(-c2ccc3nc(-c4nc5ccccc5[nH]4)oc3c2)cc1NS(=O)(=O)CC(F)(F)F [Example 76, N-(5-(2-(1H-Benzo[d]imidazol-2-yl)benzo[d]oxazol-6-yl)-2-methylpyridin-3-yl)-2,2,2-trifluoroethanesulfonamide bis(trifluoroacetate)]
< 5 µM | OC(c1cncc(-c2ccc3nc(-c4nc5c([nH]4)CCCC5)oc3c2)c1)C(F)(F)F (stereo not drawn) [Example 68, 2,2,2-Trifluoro-1-(5-(2-(4,5,6,7-tetrahydro-1H-benzo[d]imidazol-2-yl)benzo[d]oxazol-6-yl)pyridin-3-yl)ethanol]
< 1 µM | CN1CCN(S(=O)(=O)Nc2cc(-c3ccc4nc(-c5nc6ccccc6[nH]5)oc4c3)cnc2F)CC1 [Example 32, N-(5-(2-(1H-Benzo[d]imidazol-2-yl)benzo[d]oxazol-6-yl)-2-fluoropyridin-3-yl)-4-methylpiperazine-1-sulfonamide]

Source: patent US10022387B2, “Aza-heteroaryl compounds as PI3K-gamma inhibitors” (Incyte Corporation, priority 2015, dated 2018)
